Experiments:
[1] = molecular target: T1, NANOLUC-HDAC6 fusion protein (Homo sapiens, UniProt Q9UBN7); assay: Intracellular BRET tracer binding, NANOLUC-HDAC6 in HEK293 cells (Example 1); settings: live HEK293 cells, compared to SAHA-TMR (PBI-4967)
T1 construct: expressed in transfected cells; host or cells: HEK293
Description: In this example, conjugates of suberoylanilide hydroxamic acid (SAHA), an inhibitor of histone deacetylase 6 (HDAC6), and a PBI dye (SAHA-TOM (PBI-4968); See FIGS. 8A-B) or standard dye (SAHA-TAMRA (PBI-4967); See FIGS. 8A-B) were utilized in an intracellular BRET assay using a NANOLUC-HDAC fusion protein (SEQ ID NO: 3).
HEK293 cells were transfected using FuGene HD (Promega Corp.) with plasmid DNA encoding a NANOLUC-HDAC6 fusion protein. NANOLUC-HDAC6 DNA was diluted 1:1000 with a promoterless carrier DNA (pGEM3Z) to yield a final concentration of 50 ng/well total DNA in 96-well plate format (at a seeding density of 20,000 cells/well). Twenty-four hours post-transfection, cells were then incubated with serially-diluted tracer in the presence or absence of a molar excess of unlabeled SAHA (as a specificity control). Following equilibration with the drug tracers, furimazine (a coelenterazine derivative substrate for NANOLUC; Promega Corp.) was added at a concentration of 20 uM, and BRET was quantified on a Varioskan luminometer. The specific BRET signal was calculated by subtracting the non-specific signal (in the presence of unlabeled SAHA) from the signal generated from the SAHA tracer alone.

[2] = molecular target: T2, NANOLUC-HDAC6 (Homo sapiens, UniProt Q9UBN7); assay: BRET compound panel screen by competitive displacement of SAHA-TOM, NANOLUC-HDAC6 in HEK293 cells (Example 15); assay type: binding; settings: 1 uM SAHA-TOM (PBI-4968), 2 h
T2 construct: expressed in transfected cells; host or cells: HEK293
T2 sequence (Q9UBN7 with tags, fused parts or gaps): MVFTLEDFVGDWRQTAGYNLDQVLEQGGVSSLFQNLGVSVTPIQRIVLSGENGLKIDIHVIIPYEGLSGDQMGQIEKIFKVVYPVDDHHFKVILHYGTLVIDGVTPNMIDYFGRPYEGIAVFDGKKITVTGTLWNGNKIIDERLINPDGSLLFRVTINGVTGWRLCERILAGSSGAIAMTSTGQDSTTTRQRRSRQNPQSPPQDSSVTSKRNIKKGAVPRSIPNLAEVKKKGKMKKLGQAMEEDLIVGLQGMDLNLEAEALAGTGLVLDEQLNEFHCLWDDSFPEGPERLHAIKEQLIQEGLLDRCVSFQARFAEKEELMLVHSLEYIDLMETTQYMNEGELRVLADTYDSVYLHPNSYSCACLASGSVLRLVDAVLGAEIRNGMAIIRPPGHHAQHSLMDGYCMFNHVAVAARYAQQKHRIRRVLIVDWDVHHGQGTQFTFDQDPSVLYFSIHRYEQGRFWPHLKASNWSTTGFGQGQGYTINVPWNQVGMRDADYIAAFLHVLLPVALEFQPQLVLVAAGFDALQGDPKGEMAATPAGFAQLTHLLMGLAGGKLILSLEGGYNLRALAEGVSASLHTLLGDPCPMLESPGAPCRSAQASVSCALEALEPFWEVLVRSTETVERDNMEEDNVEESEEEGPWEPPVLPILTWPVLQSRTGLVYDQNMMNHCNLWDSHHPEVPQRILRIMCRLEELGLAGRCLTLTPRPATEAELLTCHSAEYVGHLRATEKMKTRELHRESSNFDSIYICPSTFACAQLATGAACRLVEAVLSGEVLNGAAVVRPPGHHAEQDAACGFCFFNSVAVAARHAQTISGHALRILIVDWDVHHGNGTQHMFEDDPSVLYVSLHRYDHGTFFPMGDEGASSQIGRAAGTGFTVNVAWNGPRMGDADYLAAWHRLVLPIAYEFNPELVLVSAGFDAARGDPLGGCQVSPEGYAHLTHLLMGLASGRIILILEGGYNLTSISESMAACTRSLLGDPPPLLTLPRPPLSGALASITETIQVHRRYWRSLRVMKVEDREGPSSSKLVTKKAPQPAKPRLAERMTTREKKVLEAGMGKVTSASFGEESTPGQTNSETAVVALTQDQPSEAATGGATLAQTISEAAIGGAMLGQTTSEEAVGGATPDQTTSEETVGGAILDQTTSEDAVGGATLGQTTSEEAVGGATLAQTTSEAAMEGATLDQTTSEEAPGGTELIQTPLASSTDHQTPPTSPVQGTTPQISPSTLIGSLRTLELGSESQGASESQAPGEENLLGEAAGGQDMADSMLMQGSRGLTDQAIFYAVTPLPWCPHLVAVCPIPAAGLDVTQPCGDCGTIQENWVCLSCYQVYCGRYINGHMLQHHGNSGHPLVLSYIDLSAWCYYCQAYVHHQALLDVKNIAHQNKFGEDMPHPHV

T1 sequence (Q9UBN7 with tags, fused parts or gaps): as above

Structure (SMILES)	specific BRET signal ([1]; NANOLUC-HDAC6 DNA diluted 1:1000)	EC50 value for binding within living cells [1]	binding efficiency to HDAC6 (competitive displacement of tracer) [2]
O=C(CCCCCCC(=O)Nc1ccc(CNC(=O)c2ccc(C(=O)O)c(C3=c4cc5c6c(c4Oc4c3cc3c7c4CCCN7CCCC3)CCC[N+]=6CCCC5)c2)cc1)NO [PBI-4968]	superior, specific BRET signal	left-shifted	
O=C(CCCCCCC(=O)Nc1ccccc1)NO [SAHA, suberoylanilide hydroxamic acid]			high binding efficiency
